# US6737383B1, “Herbicidal oxadiazolidines” (priority 1999, dated 2004)
# How the values were obtained:
# pigweed = experiment: Test B pre/postemergence pigweed; format: in vivo, Amaranthus retroflexus
# Outline: (§1)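 Test chemicals in a non-phytotoxic solvent mixture with surfactant were sprayed preemergence onto planted seeds and postemergence onto plants 2 to 18 cm tall (1- to 4-leaf stage). After twelve to sixteen days in a greenhouse, injury was visually rated against untreated controls from 0 (no effect) to 10 (complete control).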
# sugar beet = experiment: Test B pre/postemergence sugar beet; format: in vivo, Beta vulgaris
# Outline: as §1
# smallflower flatsedge = experiment: Test B flood test smallflower flatsedge; format: in vivo, Cyperus difformis
# Outline: (§2)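 Read-out is a visual response score from 0 (no effect) to 10 (complete control), assigned by comparison with untreated controls. Treatment was applied at the 2-leaf stage, and plants stayed in the greenhouse for twelve to sixteen days before scoring.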
# blackgrass = experiment: Test B pre/postemergence blackgrass; format: in vivo, Alopecurus myosuroides
# Outline: as §1
# velvetleaf = experiment: Test B pre/postemergence velvetleaf; format: in vivo, Abutilon theophrasti
# Outline: as §1
# wheat = experiment: Test B pre/postemergence wheat; format: in vivo, Triticum aestivum
# Outline: as §1
# rape = experiment: Test B pre/postemergence rape; format: in vivo, Brassica napus
# Outline: as §1
# bedstraw = experiment: Test B pre/postemergence bedstraw; format: in vivo, Galium aparine
# Outline: as §1
# corn = experiment: Test B pre/postemergence corn; format: in vivo, Zea mays
# Outline: as §1
# purple nutsedge = experiment: Test B pre/postemergence purple nutsedge; format: in vivo, Cyperus rotundus
# Outline: as §1
# bamyardgrass = experiment: Test B flood test barnyardgrass; format: in vivo, Echinochloa crus-galli
# Outline: as §2
# surinam grass = experiment: Test B pre/postemergence surinam grass; format: in vivo, Brachiaria decumbens
# Outline: as §1
# crabgrass = experiment: Test B pre/postemergence crabgrass; format: in vivo, Digitaria sanguinalis
# Outline: as §1
# cocklebur = experiment: Test B pre/postemergence cocklebur; format: in vivo, Xanthium strumarium
# Outline: as §1
# soybean = experiment: Test B pre/postemergence soybean; format: in vivo, Glycine max
# Outline: as §1
# wild oat = experiment: Test B pre/postemergence wild oat; format: in vivo, Avena fatua
# Outline: as §1
# [1] = Postemergence, Rate 62 g/ha, scale 0 to 10, 0 is no effect, 10 is complete control
# [2] = Postemergence, Rate 125 g/ha, scale of 0 to 10 where 0 is no effect and 10 is complete control
# [3] = Postemergence, Rate 250 g/ha, scale of 0 to 10, 0 is no effect, 10 is complete control
# [4] = Preemergence, Rate 62 g/ha, scale 0 to 10 (0 no effect, 10 complete control)
# [5] = Preemergence, Rate 125 g/ha, scale of 0 to 10 where 0 is no effect and 10 is complete control
# [6] = Preemergence, Rate 250 g/ha, scale 0 to 10 (0 no effect, 10 complete control)
# [7] = Preemergence, Rate 500 g/ha, scale of 0 to 10 where 0 is no effect and 10 is complete control
# [8] = Rate 62 g/ha, flood test species, Pre-emergence, visual evaluation after twelve to sixteen days
# [9] = Rate 125 g/ha, under heading Pre-emergence, flood test species, visual evaluation after twelve to sixteen days
# [10] = Rate 250 g/ha, Pre-emergence (flood test species), scale 0 to 10, 0 is no effect, 10 is complete control
# [11] = Rate 500 g/ha, Pre-emergence section of Table B, 0 to 10 scale (0 no effect, 10 complete control)
# [12] = Postemergence, Rate 500 g/ha, scale of 0 to 10 where 0 is no effect and 10 is complete control
smiles,measurement,setting,value
CC(C)N(C(=O)n1oc(=O)n(CC2CCCCO2)c1=O)c1ccc(F)cc1 (stereo not shown) [Compound 624],"Plant response rating, Redroot pigweed",pigweed; [1],0
same,"Plant response rating, Redroot pigweed",pigweed; [2],0
same,Redroot pigweed plant response rating,pigweed; [3],2
same,Redroot pigweed plant response rating,pigweed; [4],0
same,Redroot pigweed plant response rating,pigweed; [5],0
same,"Plant response rating, Redroot pigweed",pigweed; [6],3
same,"Plant response rating, Redroot pigweed",pigweed; [7],10
same,"Plant response rating, Sugarbeets",sugar beet; [1],0
same,"Plant response rating, Sugarbeets",sugar beet; [2],0
same,Sugarbeets plant response rating,sugar beet; [3],0
same,Sugarbeets plant response rating,sugar beet; [4],0
same,Sugarbeets plant response rating,sugar beet; [5],1
same,"Plant response rating, Sugarbeets",sugar beet; [6],7
same,"Plant response rating, Sugarbeets",sugar beet; [7],8
same,"Plant response rating, S. Flatsedge (0 to 10 scale, 0 is no effect, 10 is complete control)",smallflower flatsedge; [8],0
same,"S. Flatsedge plant response rating (0 to 10 scale, 0 is no effect, 10 is complete control)",smallflower flatsedge; [9],0
same,S. Flatsedge plant response rating,smallflower flatsedge; [10],0
same,S. Flatsedge plant response rating,smallflower flatsedge; [11],0
same,"Plant response rating, Blackgrass",blackgrass; [1],4
same,"Plant response rating, Blackgrass",blackgrass; [2],5
same,Blackgrass plant response rating,blackgrass; [3],8
same,"Plant response rating, Blackgrass",blackgrass; [12],9
same,Blackgrass plant response rating,blackgrass; [4],1
same,Blackgrass plant response rating,blackgrass; [5],8
same,"Plant response rating, Blackgrass",blackgrass; [6],8
same,"Plant response rating, Blackgrass",blackgrass; [7],9
same,"Plant response rating, Velvetleaf",velvetleaf; [1],0
same,"Plant response rating, Velvetleaf",velvetleaf; [2],0
same,Velvetleaf plant response rating,velvetleaf; [3],0
same,Velvetleaf plant response rating,velvetleaf; [4],0
same,Velvetleaf plant response rating,velvetleaf; [5],0
same,"Plant response rating, Velvetleaf",velvetleaf; [6],1
same,"Plant response rating, Velvetleaf",velvetleaf; [7],8
same,"Plant response rating, Wheat",wheat; [1],0
same,"Plant response rating, Wheat",wheat; [2],0
same,Wheat plant response rating,wheat; [3],0
same,Wheat plant response rating,wheat; [4],0
same,Wheat plant response rating,wheat; [5],0
same,"Plant response rating, Wheat",wheat; [6],6
same,"Plant response rating, Wheat",wheat; [7],7
same,"Plant response rating, Rape",rape; [1],0
same,"Plant response rating, Rape",rape; [2],0
same,Rape plant response rating,rape; [3],0
same,"Plant response rating, Rape",rape; [12],3
same,Rape plant response rating,rape; [4],0
same,Rape plant response rating,rape; [5],0
same,"Plant response rating, Rape",rape; [6],1
same,"Plant response rating, Rape",rape; [7],7
same,"Plant response rating, Bedstraw",bedstraw; [1],0
same,Bedstraw plant response rating,bedstraw; [4],0
same,Bedstraw plant response rating,bedstraw; [5],0
same,"Plant response rating, Bedstraw",bedstraw; [6],0
same,"Plant response rating, Bedstraw",bedstraw; [7],3
same,"Plant response rating, Corn",corn; [1],0
same,"Plant response rating, Corn",corn; [2],0
same,Corn plant response rating,corn; [3],2
same,"Plant response rating, Corn",corn; [12],5
same,Corn plant response rating,corn; [4],0
same,Corn plant response rating,corn; [5],0
same,"Plant response rating, Corn",corn; [6],2
same,"Plant response rating, Corn",corn; [7],6
same,"Plant response rating, Nutsedge",purple nutsedge; [1],0
same,"Plant response rating, Nutsedge",purple nutsedge; [2],0
same,Nutsedge plant response rating,purple nutsedge; [3],0
same,"Plant response rating, Nutsedge",purple nutsedge; [12],3
same,Nutsedge plant response rating,purple nutsedge; [4],0
same,Nutsedge plant response rating,purple nutsedge; [5],0
same,"Plant response rating, Nutsedge",purple nutsedge; [6],0
same,"Plant response rating, Nutsedge",purple nutsedge; [7],0
same,"Plant response rating, Barnyardgrass (0 to 10 scale, 0 is no effect, 10 is complete control)",bamyardgrass; [8],0
same,"Barnyardgrass plant response rating (0 to 10 scale, 0 is no effect, 10 is complete control)",bamyardgrass; [9],0
same,Barnyardgrass plant response rating,bamyardgrass; [10],0
same,Barnyardgrass plant response rating,bamyardgrass; [11],0
same,"Plant response rating, B. signalgrass",surinam grass; [1],4
same,"Plant response rating, B. signalgrass",surinam grass; [2],7
same,B. signalgrass plant response rating,surinam grass; [3],7
same,"Plant response rating, B. signalgrass",surinam grass; [12],8
same,B. signalgrass plant response rating,surinam grass; [4],3
same,B. signalgrass plant response rating,surinam grass; [5],6
same,"Plant response rating, B. signalgrass",surinam grass; [6],6
same,"Plant response rating, B. signalgrass",surinam grass; [7],8
same,"Plant response rating, Crabgrass",crabgrass; [1],6
same,"Plant response rating, Crabgrass",crabgrass; [2],7
same,Crabgrass plant response rating,crabgrass; [3],7
same,Crabgrass plant response rating,crabgrass; [4],7
same,"Plant response rating, Crabgrass",crabgrass; [6],9
same,"Plant response rating, Crabgrass",crabgrass; [7],9
same,"Plant response rating, Cocklebur",cocklebur; [1],0
same,"Plant response rating, Cocklebur",cocklebur; [2],0
same,Cocklebur plant response rating,cocklebur; [3],2
same,"Plant response rating, Cocklebur",cocklebur; [12],6
same,Cocklebur plant response rating,cocklebur; [4],0
same,Cocklebur plant response rating,cocklebur; [5],0
same,"Plant response rating, Cocklebur",cocklebur; [6],0
same,"Plant response rating, Cocklebur",cocklebur; [7],0
same,"Plant response rating, Soybean",soybean; [1],2
same,"Plant response rating, Soybean",soybean; [2],3
same,Soybean plant response rating,soybean; [3],7
same,Soybean plant response rating,soybean; [4],0
same,Soybean plant response rating,soybean; [5],0
same,"Plant response rating, Soybean",soybean; [6],3
same,"Plant response rating, Soybean",soybean; [7],7
same,"Plant response rating, Wild oats",wild oat; [1],0
same,"Plant response rating, Wild oats",wild oat; [2],0
same,Wild oats plant response rating,wild oat; [3],0
same,Wild oats plant response rating,wild oat; [4],2
same,Wild oats plant response rating,wild oat; [5],6
same,"Plant response rating, Wild oats",wild oat; [6],6
same,"Plant response rating, Wild oats",wild oat; [7],6
